A word on the EC50: it is the concentration that produces a half-maximal response.

SMILES strings stand for the structures. Activity calls are given as the source filed them. How the calls were made is not given here.

The assay deals with S. cerevisiae GAL1 promoter reporter activation counterscreen. Nature of the assay: GAL1 promoter activators in yeast, artefact control for yeast lifespan extension project, S. cerevisiae (AID 816).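 Further: yeast growth read after 24 h of incubation with compounds.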
Take `CCCCN(CCCC)c1ccc(C(=O)c2ccccc2C(=O)O)c(O)c1`: the EC50 is > 40 µM (inactive).
Take `CCN(CCO)C(=O)C12CCC(C)(C(=O)C1)C2(C)C` (configuration not stated): the EC50 is > 40 µM (inactive).
In the case of `O=C1c2ccccc2C(=O)N1Cc1nc2ccccc2c(=O)n1-c1ccc(Br)cn1`, the EC50 was > 40 µM (inactive).
Turning to `CC(=O)[C@H]1[C@H](c2cccc(Cl)c2)C(C#N)(C#N)[C@@H]2c3ccccc3C=CN21`, the EC50 is > 40 µM (inactive).
Consider `CC(C)n1c(-c2ccccc2F)n[nH]c1=S`, for which the EC50 is > 40 µM (inactive).
Next, `Cc1ccc2nc(N3C(=O)C(O)=C(C(=O)c4ccco4)C3c3cccs3)sc2c1` (configuration not stated): > 40 µM (inactive).
For the molecule `CC(=Nc1ccc2c(c1)nc(CO)n2C)C1=C(O)CC(C)(C)CC1=O`, the EC50 was > 40 µM (inactive).
With `O=C(Oc1ccc([N+](=O)[O-])cc1)c1ccc2ccccc2n1`, the EC50 was > 40 µM (inactive).
With `Cc1cc(C)cc(CC2CC(=O)N(c3ccc(Cl)cn3)C2=O)c1` (configuration not stated), the EC50 was > 40 µM (inactive).
Next, `CC[n+]1ccc(C[n+]2ccccc2)c2ccccc21`: > 40 µM (inactive); `COc1cc(/C=c2\sc3nc(-c4ccncc4)nn3c2=O)ccc1OC(C)=O`: > 40 µM (inactive).
On to `O=C(O)c1ccc(O)c(N2C(=O)Nc3ccccc3N2O)c1`, for which the EC50 was > 40 µM (inactive).
Next, `CCOc1ccc(/C=C/C(=O)c2c(O)c3ccccc3oc2=O)cc1`: > 40 µM (inactive); `Fc1cccc2sc(Nc3nnc(-c4ccco4)o3)nc12`: > 40 µM (inactive); `COC(=O)C1=C(C(=O)OC)C(c2cc(Br)ccc2O)c2sc(=O)[nH]c2S1` (configuration not stated): > 40 µM (inactive).
For `Nn1c(-c2ccccn2)nnc1-c1ccccn1`, the EC50 is > 40 µM (inactive).
Take `CCCc1cc(=O)oc2cc(C)c(CN3CCCC3)c(O)c12`: the EC50 was > 40 µM (inactive).
As for `COc1ccc(C(=O)C(CN2CCOCC2)c2ccccc2)cc1` (configuration not stated), the EC50 was > 40 µM (inactive).
Consider `CC1(C)CC(=O)C(C(=O)Cc2ccccc2[N+](=O)[O-])C(=O)C1`, for which the EC50 is > 40 µM (inactive).
For `O=C1CC(c2ccccc2)CC(O)=C1C=NCCN1CCN(C(=O)Cc2ccccc2)CC1` (configuration not stated), the EC50 was > 40 µM (inactive).
On to `COc1cc(/C=C/C(=O)C2C(=O)C=C(C)OC2=O)cc(OC)c1O` (configuration not stated), for which the EC50 is > 40 µM (inactive).
For `Nc1sc(-c2ccccc2)cc1C(=O)O`, the EC50 is > 40 µM (inactive).
In the case of `CCCC[n+]1c(-c2ccc(Cl)cc2Cl)csc1Nc1ccccc1`, the EC50 is > 40 µM (inactive).
For the molecule `O=C(NNC1=Nc2cccc3cccc1c23)c1ccccc1Br`, the EC50 was > 40 µM (inactive).
Turning to `CC(C)(C)C(=O)Cn1c(=N)n(Cc2ccccc2)c2ccccc21`, the EC50 is > 40 µM (inactive).
As to `O=C1C(=C(O)c2ccccc2)C(=O)c2ccccc21`, the EC50 was > 40 µM (inactive).
On to `O=C(NCC1CCCO1)c1c(O)c2ccccc2[nH]c1=O` (configuration not stated), for which the EC50 is > 40 µM (inactive).
Next, `O=c1cc(-c2c(F)c(F)c(F)c(F)c2F)oc2c(F)c(F)c(F)c(F)c12`: > 40 µM (inactive); `CCC(=O)N1CCN(CCN=CC2=C(O)CC(c3cccs3)CC2=O)CC1` (configuration not stated): > 40 µM (inactive); `CN(C)C=C1C(=O)N(C2CCCCC2)C(=O)N(C2CCCCC2)C1=O`: > 40 µM (inactive).
`CCCCCCN1CC(C(=O)OCC)C(=O)C1=O` (configuration not stated): the EC50 was > 40 µM (inactive).
In the case of `CCCC(=O)Nc1ccc(C(=O)NNC(=S)NC(=O)c2cccs2)cc1`, the EC50 is > 40 µM (inactive).
For `CCN1C(=O)C(=Cc2ccc(C)s2)C(=O)N(CC)C1=S` the value was > 40 µM (inactive); for `Cc1ccc2[nH]c(=O)c(CN(CCO)Cc3nnnn3CCc3ccccc3)cc2c1`, > 40 µM (inactive); for `COc1ccc(-c2noc(CSc3nnc(-c4ccncc4)n3-c3ccc(F)cc3)n2)cc1OC`, > 40 µM (inactive).
For `CCOC(=O)/C(=C\c1cn(C)c2ccccc12)[N+](=O)[O-]`, the EC50 is > 40 µM (inactive).
In the case of `CCOC(=O)COc1ccccc1/C=C\[N+](=O)[O-]`, the EC50 is > 40 µM (inactive).
For `CCCCCn1c(=O)c(C(=O)NCc2ccccn2)c(O)c2ccccc21`, the EC50 is > 40 µM (inactive).
Regarding `CCN1C(=O)/C(=C/N(C(C)=O)c2ccccc2)N(c2ccccc2)C1=S`, the EC50 was > 40 µM (inactive).
For the molecule `COc1cccc(C2CC3C(=O)C=CC2N3Cc2ccccc2)c1` (configuration not stated), the EC50 is > 40 µM (inactive).
For `CCOC(=O)CCS(=O)(=O)c1nc(-c2ccccc2)cc(C(F)(F)F)n1`, the EC50 is > 40 µM (inactive).
For the molecule `Cc1cc(C)n(-c2ccc(OCC(=O)O)nn2)n1`, the EC50 is > 40 µM (inactive).
For the molecule `COc1ccc(N(C(=O)C(C)C)S(=O)(=O)c2ccc(Cl)cc2)cc1`, the EC50 was > 40 µM (inactive).
Take `O=C(NCc1ccco1)c1cc(C(=O)C2CCCCC2)c[nH]1`: the EC50 is > 40 µM (inactive).
Next, `CCn1c(/N=C/c2ccccc2NS(=O)(=O)c2ccc(C)cc2)nc2ccccc21`: > 40 µM (inactive); `COc1ccc(N(C)C(=S)Nc2ccc3nc(C)c(C)nc3c2)cc1`: > 40 µM (inactive).
Next, `O=C1NCC2=C1C(c1ccc(Br)cc1)Nc1ccccc1N2` (configuration not stated): > 40 µM (inactive).
Next, `CN1C(=O)/C(=C/c2cccn2-c2ccc3ccccc3c2)C(=O)NC1=S`: > 40 µM (inactive).
Regarding `CC(=O)c1c(C)[nH]c(C(=O)OC2CCCCC2=O)c1C` (configuration not stated), the EC50 is > 40 µM (inactive).
For `COc1ccc(C(=O)Nc2ccc(OCc3ccccc3)cc2)cc1[N+](=O)[O-]` the value was > 40 µM (inactive).
Next, `CC1(C)Oc2ccccc2OC1(O)c1ccc2ccccc2n1` (configuration not stated): > 40 µM (inactive); `CCCCCSc1nc2c(c(=O)[nH]c(=O)n2C)n1C`: > 40 µM (inactive); `CN=C(SCc1cc2c(cc1Cl)OCO2)c1c(O)n(C)c(=O)n(C)c1=O`: > 40 µM (inactive).
In the case of `COC(=O)C1=C(C(=O)OC)SC(=C2C(=S)C(C)(C)N(C(=O)C(C)C)c3ccccc32)S1`, the EC50 is > 40 µM (inactive).
Turning to `CCCC(=Nc1ccc(N)cc1)C1=C(O)C(C(=O)OC)C(C)(C)CC1=O` (configuration not stated), the EC50 is > 40 µM (inactive).
Take `CCCCn1c(NS(=O)(=O)c2ccc(C)cc2)c(C(=O)OCC)c2nc3ccccc3nc21`: the EC50 was > 40 µM (inactive).
With `CCc1ccc2c(c1)CCCN2C(=O)c1ccccc1C(=O)O`, the EC50 was > 40 µM (inactive).
For `Cc1n[nH]c(=O)n1-c1cccc(C(F)(F)F)c1` the value was > 40 µM (inactive); for `CCSc1ccccc1C(=O)n1nnc2ccccc21`, > 40 µM (inactive).
Take `COc1cnc(-c2ccccn2)nc1Sc1cccc(Cl)c1`: the EC50 was > 40 µM (inactive).
Turning to `COCCn1c(SCC(=O)Nc2ccc(C)cc2)nc2c(oc3ccccc32)c1=O`, the EC50 is > 40 µM (inactive).
For `CCCCCCC1C(C#N)=C(N)OC2=C1C(=O)CC(C)(C)C2` (configuration not stated), the EC50 was > 40 µM (inactive).
Consider `COc1ccc(NCc2nc3ccccc3n2CCOc2ccccc2)cc1`, for which the EC50 is > 40 µM (inactive).
For `CC(C)C(c1nnnn1Cc1ccccc1)N1CCN(Cc2ccc3c(c2)OCO3)CC1` (configuration not stated) the value was > 40 µM (inactive); for `COc1ccccc1CNC(=O)C(CCSC)NS(=O)(=O)c1ccc2c(c1)oc(=O)n2C` (configuration not stated), > 40 µM (inactive); for `O=C1Nc2ccccc2C12OCC1(CO2)COC2(OC1)C(=O)Nc1ccccc12` (configuration not stated), > 40 µM (inactive).
For the molecule `Cc1cc(C)nc(SCc2cc(=O)c(OC(=O)c3ccc(Br)o3)co2)n1`, the EC50 was > 40 µM (inactive).
`N=c1c2c(-c3ccccc3)c(-c3ccccc3)n(Cc3ccco3)c2ncn1CCCn1ccnc1`: the EC50 was > 40 µM (inactive).
Next, `N#Cc1c(-c2ccccc2)c(-c2ccccc2)nn(CC(=O)NNC(=O)Nc2ccccc2)c1=O`: > 40 µM (inactive); `COC(=O)C(=O)/C=C(\O)c1ccc(C)cc1`: > 40 µM (inactive); `O=C(/C(=C/c1ccccc1)n1cncn1)c1ccc(Cl)cc1Cl`: > 40 µM (inactive).
Turning to `O=C(NCCc1ccccn1)C(F)(F)C(F)(F)C(F)(F)C(F)(F)C(F)(F)C(F)(F)C(F)(F)C(F)F`, the EC50 was > 40 µM (inactive).
On to `O=C1/C(=N/n2cnnc2)c2ccccc2N1Cc1ccccc1`, for which the EC50 was > 40 µM (inactive).
For the molecule `O=C1Nc2cc(Cl)c(Cl)cc2N(O)N1c1cc(Cl)cc(Cl)c1`, the EC50 was > 40 µM (inactive).
Regarding `C/C(=N\NC(=O)c1ccccc1O)c1c(O)cc(C)oc1=O`, the EC50 is > 40 µM (inactive).
For `COc1ccc2c(=O)c3c(=O)n(Cc4ccco4)c(-c4ccco4)nc3oc2c1`, the EC50 was > 40 µM (inactive).
Regarding `O=C(CCl)N1c2ccccc2OCC1c1ccccc1` (configuration not stated), the EC50 is > 40 µM (inactive).
Next, `O=C(NC(=S)Nc1nc2c(s1)CSc1ccccc1-2)c1ccccc1`: > 40 µM (inactive).
For `Cc1ccc(/C(O)=C2\C(=O)C(=O)N(c3cc(C)on3)C2c2cccc(Cl)c2)cc1` (configuration not stated) the value was > 40 µM (inactive); for `CCCCCCCCn1c(=O)c(C(=O)OCC)c(O)c2ccccc21`, > 40 µM (inactive); for `COc1ccc(C(=O)On2c(-c3ccc(Br)cc3)nc3ccccc3c2=O)cc1`, > 40 µM (inactive).
Consider `CC(c1ccco1)N(C(=O)c1ccccc1NS(=O)(=O)c1cc([N+](=O)[O-])ccc1Cl)c1ccccn1` (configuration not stated), for which the EC50 is > 40 µM (inactive).
With `CN1C(=O)C(Cl)(Cl)C(=O)c2ccccc21`, the EC50 was > 40 µM (inactive).
As for `CN1CCN(C(=S)Nc2cc([N+](=O)[O-])ccc2Cl)CC1`, the EC50 was > 40 µM (inactive).
As to `COCCCNc1c2c3c(cccc3[nH]c1=O)C(=O)c1ccccc1-2`, the EC50 is > 40 µM (inactive).
On to `CC(=O)Oc1ccc(N(C(C)=O)S(=O)(=O)c2ccc(C)c([N+](=O)[O-])c2)cc1`, for which the EC50 was > 40 µM (inactive).
Consider `Oc1ccc2ccccc2c1C=Nc1ccc(N2CCOCC2)cc1`, for which the EC50 was > 40 µM (inactive).

The record behind these values is PubChem BioAssay AID816 (SRMLSC, 2007).
